Measurements published in patent US20160175249A1, “Liposomes Containing Oligopeptide Fragments of Myelin Basic Protein, a Pharmaceutical Composition and a Method for Treatment of Multiple Sclerosis” (LIPOXEN TECHNOLOGIES LIMITED, priority 2009, published 2016).

Assays:
[1] = tested on: experimental allergic encephalomyelitis (EAE) in DA rats; test: Treatment of EAE in DA rats with liposomally encapsulated MBP peptides (Example 5); type: in vivo; conditions: 150 μg per animal daily subdermally days 6-11, score 0-5
Procedure: To induce experimental allergic encephalomyelitis (EAE) in DA rats having a mass of 220-250 g ([…]), 10 μg of myelin basic protein encephalogenic peptide fragment ARTTHYGSLPQKSQRSQ (SEQ ID NO:4; Anaspec, US) emulsified in Freund's complete adjuvant (Difco, US) at a concentration of 10% (m/v) was subdermally injected into the forepaw. The rats were weighted and monitored for EAE neurological symptoms daily. The EAE symptom profile of each rate was scored according to the following scale: (0)—absence of EAE symptoms; (1)—decrease in tail tonicity; (2)—decrease in righting reflex; (3)—paresis; (4)—full paralysis; and (5)—agony or death. Intermediary symptoms were scored by increasing or decreasing the value by 0.5 units. Six days after EAE induction, animals were randomly distributed into several groups (12 animals each).
Between days six and eleven after induction, rats in each respective group were subdermally injected with the liposomal preparation described in Example 2 (emulsified in phosphate saline solution, pH 7.4), a positive control preparation of glatiramer acetate (GA; copaxone, Teva Pharmaceutical Industries Ltd, Israel), a prototype peptide: DENPVVIIFFKNIVTPRT (SEQ ID NO:5), or a buffered phosphate saline solution (pH 7.4) placebo. The peptide, Glatiramer acetate, and liposomal preparations were formulated immediately prior to administration using buffered phosphate saline solution (pH 7.4). 0.1 mL of each composition was administered daily at a concentration of 150 μg per animal.

[2] = tested on: multiple sclerosis (cerebrospinal form, remissive course); test: Treatment of a human subject diagnosed with multiple sclerosis (Example 7); type: in vivo; conditions: patient, 500 mg once every two weeks
Source text: A patient diagnosed with multiple sclerosis (cerebrospinal form, remissive course), in the relapse stage, was previously subjected to repeated corticosteroid treatment. […] At the time of treatment, the patient presented with: lateral nystagmus when looking to the right, active tendon reflex, S<D in the legs, active upper abdominal reflex, absent middle and lower abdominal reflex, bilateral Babinski's symptom, foot clonus (more expressed in the right foot), no paresis in the extremities, muscle tonicity unchanged, ataxic gait, loss of balance in the Romberg stance, ataxia when performing hccl-shin test, and urine retention. The value of the patient's neurological deficit on the EDSS scale was 6.
The patient also presented with ophthalmic blanching of temporal halves of optic nerve heads. After studying the patient's PBMC, the activity of T-lymphocytcs with respect to MBP was determined at a stimulation index (SI) of 7.45. Levels of serum IgG antibodies were 75 units per ml.
With the patient's consent, the prototype peptide composition was administered once every two weeks at a dosage of 500 mg. 7 days after each injection, the patient's peripheral (venous) blood was sampled in order to determine changes in T-lymphocyte activity with respect to MBP, as well as autoantibody levels. […] At week four, the patients IgG autoantibody level increased to 112 units per mL, and T-cell SI doubled. […]

What does the source list for “DENPVVIIFFKNIVTPRT (a prototype peptide) [prototype peptide used as comparator]”?
Evaluation of EAE symptom intensity, average ([1]; day 0 after EAE induction): 0.00; Evaluation of EAE symptom intensity, average ([1]; day 1 after EAE induction): 0.00; Evaluation of EAE symptom intensity, average ([1]; day 2 after EAE induction): 0.00; Evaluation of EAE symptom intensity, average ([1]; day 3 after EAE induction): 0.00; Evaluation of EAE symptom intensity, average ([1]; day 4 after EAE induction): 0.00; Evaluation of EAE symptom intensity, average ([1]; day 5 after EAE induction): 0.00; Evaluation of EAE symptom intensity, average ([1]; day 6 after EAE induction): 0.00; Evaluation of EAE symptom intensity, average ([1]; day 7 after EAE induction): 0.00; Evaluation of EAE symptom intensity, average ([1]; day 8 after EAE induction): 0.58; Evaluation of EAE symptom intensity, average ([1]; day 9 after EAE induction): 1.33; Evaluation of EAE symptom intensity, average ([1]; day 10 after EAE induction): 2.42; Evaluation of EAE symptom intensity, average ([1]; day 11 after EAE induction): 2.33; Evaluation of EAE symptom intensity, average ([1]; day 12 after EAE induction): 2.50; Evaluation of EAE symptom intensity, average ([1]; day 13 after EAE induction): 2.17; Evaluation of EAE symptom intensity, average ([1]; day 14 after EAE induction): 2.00; Evaluation of EAE symptom intensity, average ([1]; day 15 after EAE induction): 1.83; Evaluation of EAE symptom intensity, average ([1]; day 16 after EAE induction): 1.67; Evaluation of EAE symptom intensity, average ([1]; day 17 after EAE induction): 1.33; Evaluation of EAE symptom intensity, average ([1]; day 18 after EAE induction): 1.42; Evaluation of EAE symptom intensity, average ([1]; day 19 after EAE induction): 1.08; Evaluation of EAE symptom intensity, average ([1]; day 20 after EAE induction): 0.83; Evaluation of EAE symptom intensity, average ([1]; day −1 after EAE induction): 0.00; clinical presentation of MS ([2]; over the course of 7 weeks): progressed slightly; T-cell SI ([2]; week four, before treatment 7.45): doubled
